Biological target: Heat shock protein HSP 90-alpha (Homo sapiens, UniProt P07900)
Assay: AlphaScreen Competitive Assay: HSP90-binding activity was determined by an AlphaScreen competitive assay system. The purified HSP90 solution was diluted with a binding buffer (50 mM Tris-HCl (pH 7.5), 150 mM NaCl, 0.1% Triton-X 100, 1 mM DTT, 0.1% BSA) and added to a 384-well plate (#3673, Corning Inc.) containing test substances. After reaction at room temperature for 2 hours, biotinylated geldanamycin was added thereto at a concentration of 40 nM/well and further reacted for 1 hour. Detection mix (20 mM HEPES-KOH (pH 7.5), 0.5% BSA, 0.04 mg/mL Nickel Chelate Acceptor beads, 0.04 mg/mL Streptavidin-coated Donor beads) (#6760619C, PerkinElmer, Inc.) was added to each well in an amount equal to the amount of the reaction solution and reacted at room temperature for 1 hour in the dark. Then, fluorescence intensity was measured using Multilabel Plate Reader EnVision (PerkinElmer, Inc.).

SMILES | IC50 [nM]
CCNc1cc(-c2nccc3c(-n4cnc(-c5cnn(C)c5)c4)cccc23)ccc1C(N)=O | 190
NCC(=O)OC1CCC(Nc2cc(-c3nccc4c(-c5cnc6ccccc6c5)cccc34)ccc2C(N)=O)CC1 (stereo not drawn) | 450
Cn1cc(-c2cn(-c3cccc4c(-c5ccc(C(N)=O)c(NCC6CC6)c5)cc(C(F)(F)F)nc34)cn2)cn1 | 220
CC(C)Cn1cc(-c2cn(-c3cccc4c(-c5ccc(C(N)=O)c(NC6CCC(O)CC6)c5)nccc34)cn2)cn1 (stereo not drawn) | 280
CCNc1cc(-c2cc(C(F)(F)F)nc3c(-n4cnc(-c5cnn(C(F)F)c5)c4)cccc23)ccc1C(N)=O | 230

Continued, values first:

IC50 [nM] | SMILES
60 | NC(=O)c1ccc(-c2nccc3c(-c4cncc(N)c4)cccc23)cc1NC1CCC(O)CC1 (stereo not drawn)
270 | Cn1cc(-c2cn(-c3cccc4c(-c5ccc(C(N)=O)c(NC6CCCCCC6)c5)nccc34)cn2)cn1
3390 | CC(C)(C)Nc1cc(-c2cc(C(F)(F)F)nc3c(-n4cnc(-c5ccccc5)c4)cccc23)ccc1C(N)=O

Reference: ChEMBL document CHEMBL3639015, “Bicyclic compound or salt thereof” (2014)
